# Publication PMC10108349, “Small-Molecule Fluorescent Ligands for the CXCR4 Chemokine Receptor” (Journal of Medicinal Chemistry, 2023)
# Columns and labels:
# [1] = system: HEK293G cells stably expressing SNAP-CXCR4; experiment: Confocal microscopy of fluorescent ligand binding; assay type: cell-based, human; conditions: for localisation of fluorescence in cells: 30 min at 37 °C; for membrane fluorescence after pretreatment with IT1t or AMD3100: 10 μM IT1t or 10 μM AMD3100, 30 min pre-incubation; for binding after treatment with AMD3100: 10 μM AMD3100, 30 min pre-incubation
# Description: HEK293G-SNAP-CXCR4 cells were seeded onto poly-D-lysine-coated (10 μg/mL) 8-well Nunc Lab-tek chambered coverglass (no. 1.0 borosilicate glass bottom) in DMEM supplemented with 10% FCS at a density of 30,000 cells per well. The following day, media were replaced with fresh media supplemented with 10% FCS containing 0.5 μM SNAP-Surface Alexa Fluor 488 (New England Biolabs, Hitchin UK) for 30 min at 37 °C. […]
# Cells were imaged on a Zeiss LSM880 with a Zeiss Axio Observer Z1 stand (Carl Zeiss, Germany) using a 40× C-apochromat NA1.2 water immersion objective. Excitation was via a 488 nm argon (to image SNAP-Surface Alexa Fluor 488) and 633 nm helium-neon (to image fluorescent ligands) laser lines with a 488/561/633 multibeam splitter and emission collected using a 493–628 nm band pass or 638–737 nm band pass. The pinhole was set at 1 Airy unit for the longer wavelength and laser power and gain and offset settings kept constant within the experiment to allow comparison. Equatorial plane images were made and four images were captured per condition per experiment using ZEN 2012 software (Carl Zeiss, Germany). Imaging of each ligand was performed at least three times.
# NLuc-CXCR4 = biological target: T1, NLuc-CXCR4 (Homo sapiens, UniProt P61073); assay type: binding
# T1 construct: expressed in transfected cells; membranes prepared from them
# T1 sequence (P61073 whole entry): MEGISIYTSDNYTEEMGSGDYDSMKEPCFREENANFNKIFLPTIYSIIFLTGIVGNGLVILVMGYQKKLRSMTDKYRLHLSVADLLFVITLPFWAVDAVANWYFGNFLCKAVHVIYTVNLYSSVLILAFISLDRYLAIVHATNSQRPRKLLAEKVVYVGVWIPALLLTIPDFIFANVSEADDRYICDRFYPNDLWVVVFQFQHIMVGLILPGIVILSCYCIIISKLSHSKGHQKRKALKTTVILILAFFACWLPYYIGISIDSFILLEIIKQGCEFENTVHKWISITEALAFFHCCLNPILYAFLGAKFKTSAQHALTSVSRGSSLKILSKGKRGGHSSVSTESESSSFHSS
# Description: In white clear-bottom 96-well plates or white opaque bottom 96-well plates, membranes expressing NLuc-CXCR4 were diluted to 10 μg per well in 20 μL of HBSS containing 0.2% BSA. […] Plates were then incubated in the dark for 2 h at 37 °C in the absence of CO2. The NLuc substrate furimazine (Promega Corporation) was then added (5 μL per well, 10 μM final concentration) and the plates were read using the PHERAstar FS plate reader (BMG Labtech, UK) at room temperature. The filtered light from each well was simultaneously measured using a 460 nm (80 nm band-pass filter) for NLuc emission and >610 nm longpass filter for fluorescence emission of BODIPY 630/650-X coupled ligands. For BODIPY-FL-X coupled ligands, emissions were simultaneously measured at 475 nm (30 nm band-pass filter; NLuc emission) and 535 nm (30 nm bandpass filter; BODIPY FL-X emission). The resulting raw BRET ratio was calculated by dividing the >610 nm emission (for red ligands) or the 535 nm emission (for green ligands) by the emissions measured for NLuc. […]
Compound,localisation of fluorescence in cells ([1]; 100 nM ligand),membrane fluorescence after pretreatment with IT1t or AMD3100 ([1]; 100 nM ligand),localisation of fluorescence in cells ([1]; 50 nM ligand),binding after treatment with AMD3100 ([1]; 50 nM ligand),further results
"CN1\C(=C/C=C/C=C/C2=[N+](CCCCCC(=O)N[C@H]3CC[C@H](/N=C(/NC4CCCCC4)SCC4=CSC5=NC(C)(C)CN45)CC3)c3ccc(S(=O)(=O)[O-])cc3C2(C)C)C(C)(C)c2cc(S(=O)(=O)O)ccc21 [Compound 11, 1-(6-(((1R,4R)-4-(((Z)-(Cyclohexylamino) (((6,6-dimethyl-5,6-dihydroimidazo[2,1-b]thiazol-3-yl)methyl)thio)methylene)amino)cyclohexyl)amino)-6-oxohexyl)-3,3-dimethyl-2-((1E,3E)-5-((Z)-1,3,3-trimethyl-5-sulfoindolin-2-ylidene)penta-1,3-dien-1-yl)-3H-indol-1-ium-5-sulfonate]",highly localized to the cell membrane,completely prevented,–,–,–
"CN(Cc1ncc2ccccc2c1CCCNC(=O)CCCCCNC(=O)COc1ccc(/C=C/C2=[N+]3C(=Cc4ccc(-c5cccs5)n4[B-]3(F)F)C=C2)cc1)[C@H]1CCCc2cccnc21 [Compound 18a, (S,E)-6-(2-(4-(2-(5,5-Difluoro-7-(thiophen-2-yl)-5H-4λ^4,5λ^4-dipyrrolo[1,2-c:2′,1′-f][1,3,2]diazaborinin-3-yl)vinyl)phenoxy)acetamido)-N-(3-(3-((methyl(5,6,7,8-tetrahydroquinolin-8-yl)amino)methyl)isoquinolin-4-yl)propyl)hexanamide]",–,–,"reasonable membrane fluorescence; however, intracellular fluorescence was also apparent",reduced binding to cell surface receptors,–
"CXCL12: chemokine, the only endogenous ligand of CXCR4, purchased from PeproTech",–,–,–,–,concentration-dependent decrease of the BRET signal (NLuc-CXCR4): not; displacement of fluorescently labeled CXCL12 (NLuc-CXCR4): fully displaced
"O=C(CCCCCNC(=O)COc1ccc(/C=C/C2=[N+]3C(=Cc4ccc(-c5cccs5)n4[B-]3(F)F)C=C2)cc1)NCCCCN(Cc1nc2ccccc2[nH]1)[C@H]1CCCc2cccnc21 [Compound 24, (S,E)-N-(4-(((1H-Benzo[d]imidazole-2-yl)methyl) (5,6,7,8-tetrahydroquinolin-8-yl)amino)butyl)-6-(2-(4-(2-(5,5-difluoro-7-(thiophen-2-yl)-5H-4λ4,5λ4-dipyrrolo [1,2-c:2′,1′-f][1,3,2]diazaborinin-3-yl)vinyl)phenoxy)acetamido)hexanamide]",–,–,"reasonable membrane fluorescence; however, intracellular fluorescence was also apparent",reduced binding to cell surface receptors,–
"CC1(C)CN2C(CS/C(=N/[C@H]3CC[C@H](NC(=O)CCCCCNC(=O)COc4ccc(/C=C/C5=[N+]6C(=Cc7ccc(-c8cccs8)n7[B-]6(F)F)C=C5)cc4)CC3)NC3CCCCC3)=CSC2=N1 [Compound 10, (6,6-Dimethyl-5,6-dihydroimidazo[2,1-b]thiazol-3-yl)methyl (E)-N-Cyclohexyl-N′-((1R,4R)-4-(6-(2-(4-((E)-2-(5,5-difluoro-7-(thiophen-2-yl)-5H-4λ^4,5λ^4-dipyrrolo[1,2-c:2′,1′-f][1,3,2]diazaborinin-3-yl)vinyl)phenoxy)acetamido)hexanamido)cyclo-hexyl)carbamimidothioate]",localized membrane fluorescence and very little intracellular fluorescence,substantially reduced,–,–,–
